System: breast and ovarian cancer cells
Assay: CCK-8 cell proliferation/viability at fixed concentration
Type: cell-based, human
Conditions: 48 or 72 h
Method: Cell viability assay was performed as described before. Briefly, 2500/well of breast or ovarian cancer cells were seeded into a 96-well plate; grown overnight; treated with indicated concentration of Olaparib, LY2835219, ZC22, LP-1, GC-24, or cisplatin alone or together for an indicated amount of time; and then incubated with Cell Counting kit-8 (CCK-8) substrate (Dojindo, Kumamoto, Kyushu Island, Japan) for 1–2 h at 37 °C. Cell viability was calculated by the absorbance at 450 nm measured by the GloMax Explorer (Promega, Madison, WI, USA). Cells without treatment were set as 100%, and medium control (no cells) was set as 0%.
Figure 2 ZC-22 suppresses proliferation of breast and ovarian cancer cells. (A) IC50 of ZC-22, Olaparib, and LY2835219 (Abemaciclib) in breast and ovarian cancer cells. […] Cell proliferation was analyzed by CCK-8 assays. […] Cell proliferation assay was analyzed by CCK-8 assays. […]
Figure 5 ZC-22 increases the sensitivity of breast and ovarian cancer cells to cisplatin. […] Representative pictures of EdU staining are shown in the left panels, and quantification of percentage of EdU-positive cells was presented in the bar graphs on the right, n = 3. […] (D) Representative pictures (left) and quantification of percentage (right) of γH2A.X-positive cells in MDA-MB-231 (top panels) and OVCAR5 (bottom panels) cells treated with DDP alone or together with OLA or ZC-22 for 24 h, n = 3. […]

Q: With Cc1nc2c(F)cc(-c3nc(Nc4ccc(N5CCN(C(=O)c6cc(Cc7n[nH]c(=O)c8ccccc78)ccc6F)CC5)cn4)ncc3F)cc2n1C(C)C [ZC-22, 4-(4-fluoro-3-(4-(6-((5-fluoro-4-(4-fluoro-1-isopropyl-2-methyl-1H-benzo[d]imidazole-6-yl)pyrimidin-2-yl)amino)pyridin-3-yl)piperazine-1-carbonyl)benzyl)phthalazin-1(2H)-one] as the compound, how does the “growth inhibition compared with Olaparib and Abemaciclib alone and combined” value (MDA-MB-231 2 μM, SUM-159, OVCAR5, SKOV3 0.5 μM) read?
A: better anti-tumor efficacy than the Olaparib and Abemaciclib monotherapy, and the combination therapy

Q: And the “sensitization of cells to cisplatin (cell viability)” value (cisplatin 2.5 μM (SKOV3 5 μM) together with 2 μM or 0.5 μM compound)?
A: greatly sensitized breast and ovarian cancer cells to cisplatin
